Laboratory results: ChEMBL document CHEMBL1201862, “PubChem BioAssay data set” (2004)
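Each compound was tested at five concentrations against cells in 96-well plates for 48 hours. Abbreviation: GI50, concentration required for 50% inhibition of growth.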 The source made the active and inactive calls. Cut-off read from the data, not from the text of the source: active = GI50 up to about 1.1 µM and inactive = higher. Square brackets hold non-standard residues; d marks the D form. Peptide text beside a SMILES is read from it. * marks the point of attachment. Tyr(3-Br) = N[C@@H](Cc1ccc(O)c(Br)c1)C(=O)O; Boc = CC(C)(C)OC(=O)*

How the values were obtained:
Assay in all cases: NCI-60 cell line screen, 48 h
A549 = system: A549
BT-549 = system: BT-549
HCT-116 = system: HCT-116
HL-60 = system: HL-60
LOX IMVI = system: LOX IMVI
MDA-MB-435 = system: MDA-MB-435
MOLT-4 = system: MOLT-4
NCI-H226 = system: NCI-H226
OVCAR-4 = system: OVCAR-4
OVCAR-5 = system: OVCAR-5
OVCAR-8 = system: OVCAR-8
SF-295 = system: SF-295
SF-539 = system: SF-539
SK-MEL-28 = system: SK-MEL-28
SK-OV-3 = system: SK-OV-3
SW-620 = system: SW-620
T47D = system: T47D
U-251 = system: U-251
UO-31 = system: UO-31
NCI-H522 = system: NCI-H522

Compound | GI50 (A549) | GI50 (BT-549) | GI50 (HCT-116) | GI50 (HL-60) | GI50 (LOX IMVI) | GI50 (MDA-MB-435) | GI50 (MOLT-4) | GI50 (NCI-H226) | GI50 (OVCAR-4) | GI50 (OVCAR-5) | GI50 (OVCAR-8) | GI50 (SF-295) | GI50 (SF-539) | GI50 (SK-MEL-28) | GI50 (SK-OV-3) | GI50 (SW-620) | GI50 (T47D) | GI50 (U-251) | GI50 (UO-31) | GI50 (NCI-H522)
O=c1c2nn[nH]c2nc2n1CC(c1ccccc1)S2 (stereo not given) | > 100 µM (inactive) | > 100 µM (inactive) | > 100 µM (inactive) | > 100 µM (inactive) | > 100 µM (inactive) | > 100 µM (inactive) | > 100 µM (inactive) | > 100 µM (inactive) | > 100 µM (inactive) | > 100 µM (inactive) | > 100 µM (inactive) | > 100 µM (inactive) | > 100 µM (inactive) | > 100 µM (inactive) | > 100 µM (inactive) | > 100 µM (inactive) | > 100 µM (inactive) | > 100 µM (inactive) | 45.3 µM (inactive) | 
COc1ccc2nc3n(c2c1)C(c1c(F)cccc1F)SC3 (stereo not given) | 49 µM (inactive) | > 100 µM (inactive) | 25.4 µM (inactive) | 23.3 µM (inactive) | 47.3 µM (inactive) | 39.1 µM (inactive) | 32.4 µM (inactive) | 19.9 µM (inactive) | 64.4 µM (inactive) | > 100 µM (inactive) | 36.6 µM (inactive) | 38.6 µM (inactive) | > 100 µM (inactive) | > 100 µM (inactive) | > 100 µM (inactive) | 64.6 µM (inactive) | 22.3 µM (inactive) | 51.8 µM (inactive) | 51.9 µM (inactive) | 
COC(=O)c1c(O)ccc2c1c1c(n2Cc2ccc(Cl)cc2Cl)C(=O)c2ccccc2C1 | 41.3 µM (inactive) | 75.9 µM (inactive) | 87.9 µM (inactive) | > 100 µM (inactive) | 27 µM (inactive) | 45.1 µM (inactive) | 39.1 µM (inactive) | 27.6 µM (inactive) | 27.1 µM (inactive) |  | 37.8 µM (inactive) |  | 54.5 µM (inactive) | 45.2 µM (inactive) | 47.9 µM (inactive) | 57 µM (inactive) | 40.6 µM (inactive) | 38 µM (inactive) | 97.9 µM (inactive) | 
COC(=O)c1cc2c(o1)Sc1ccccc1NC2=O | > 100 µM (inactive) | > 100 µM (inactive) | > 100 µM (inactive) | > 100 µM (inactive) | > 100 µM (inactive) | > 100 µM (inactive) | > 100 µM (inactive) | > 100 µM (inactive) | > 100 µM (inactive) | > 100 µM (inactive) | 68.5 µM (inactive) | > 100 µM (inactive) | 29 µM (inactive) | > 100 µM (inactive) | > 100 µM (inactive) | > 100 µM (inactive) | > 100 µM (inactive) | 83.2 µM (inactive) |  | 2.75 µM (inactive)
COC(=O)[C@H](Cc1ccc(O)c(Br)c1)NC(=O)[C@H](Cc1ccc(O)cc1)NC(=O)OC(C)(C)C (Boc-Tyr-[Tyr(3-Br)]-OMe) | > 100 µM (inactive) | 35.2 µM (inactive) | 45.6 µM (inactive) | 32.4 µM (inactive) | 22.5 µM (inactive) | 23 µM (inactive) | 48.2 µM (inactive) | > 100 µM (inactive) | 29.8 µM (inactive) | > 100 µM (inactive) | 19.9 µM (inactive) | > 100 µM (inactive) | 28.7 µM (inactive) | 34.6 µM (inactive) | > 100 µM (inactive) | 42.6 µM (inactive) | 20.8 µM (inactive) |  | 29 µM (inactive) | 
CC(C)(C)C1=CC(=CC=C2C=CN(CCCCCCCCCCCO)C=C2)C=C(C(C)(C)C)C1=O | 1.62 µM (inactive) | 2.12 µM (inactive) | 0.951 µM (active) | 1.72 µM (inactive) | 0.735 µM (active) | 1.7 µM (inactive) | 1.32 µM (inactive) |  | 1.76 µM (inactive) | 2.48 µM (inactive) | 1.31 µM (inactive) | 1.38 µM (inactive) | 2.07 µM (inactive) | 1.78 µM (inactive) | 2.16 µM (inactive) | 2.19 µM (inactive) | 0.498 µM (active) | 0.782 µM (active) | 1.76 µM (inactive) | 0.453 µM (active)
CCCCC[C@@H]1OCO[C@@]2(C)/C=C(C)\C=C/C(=O)O[C@H]([C@@H](C)[C@@H](O)[C@H](C)[C@@]3(O)C[C@@H](O[C@H]4C[C@@H](O)[C@H](O)[C@@H](C)O4)[C@H](C)[C@@H](C)O3)[C@@H](OC)/C=C\C=C(\C)C[C@@H]1[C@@H]2O (stereo in doubt) | < 0.005 µM (active) | 0.5 µM (active) | < 0.005 µM (active) | < 0.005 µM (active) | < 0.005 µM (active) | < 0.005 µM (active) | < 0.005 µM (active) | < 0.005 µM (active) | < 0.005 µM (active) | < 0.005 µM (active) | < 0.005 µM (active) | < 0.005 µM (active) | < 0.005 µM (active) | 0.0724 µM (active) | 1.35 µM (inactive) | < 0.005 µM (active) | < 0.005 µM (active) | < 0.005 µM (active) |  | < 0.005 µM (active)
